Test results published in patent US10392402B2, “Heterocyclic compounds as kinase inhibitors” (TRANSLATIONAL DRUG DEVELOPMENT LLC, priority 2015, dated 2019).

Columns and labels:
ROCK1 = ROCK1 (Homo sapiens (Human), UniProt Q13464); assay: ROCK1 kinase inhibition assay (LABCHIP peptide phosphorylation); assay type: biochemical; conditions: 5 μM ATP, 3 nM ROCK1, 3 hours at 25° C.
Procedure: (§1) The peptide is >98% purity by Capillary Electrophoresis. The peptide is phosphorylated by the protein kinase ROCK1 or ROCK2. The ROCK1 or ROCK2 enzyme, substrate, and cofactors (ATP and Mg^2+) are combined in a well of a microtiter plate and incubated for 3 hours at 25° C. At the end of the incubation, the reaction is quenched by the addition of an EDTA-containing buffer. The substrate and product are separated and quantified electrophoretically using the microfluidic-based LABCHIP® 3000 Drug Discovery System from Caliper Life Sciences (Hopkinton, Mass.).
(§2) Substrate and product peptides present in each sample are separated electrophoretically using the LABCHIP® 3000 capillary electrophoresis instrument. […] Change in the relative fluorescence intensity of the substrate and product peaks is the parameter measured reflecting enzyme activity. Capillary electrophoregramms (RDA acquisition files) are analyzed using HTS Well Analyzer software (Caliper Life Sciences, Hopkinton, Mass.). The kinase activity in each sample is determined as the product to sum ratio (PSR): P/(S+P), where P is the peak height of the product peptide and S is the peak height of the substrate peptide. For each compound, enzyme activity is measured at various concentrations (12 concentrations of compound spaced by 3× dilution intervals). Negative control samples (0%-inhibition in the absence of inhibitor) and positive control samples (100%-inhibition in the presence of 20 mM EDTA) are assembled in replicates of four and are used to calculate %-inhibition values for each compound at each concentration. Percent inhibition (Pinh) is determined using the following equation: Pinh=(PSR0%−PSRinh)/(PSR0%−PSR100%)*100 where PSRinh is the product sum ratio in the presence of inhibitor, PSR/% is the average product sum ratio in the absence of inhibitor, and PSR100% is the average product sum ratio in 100%-inhibition control samples. The IC50 values of inhibitors are determined by fitting the inhibition curves (Pinh versus inhibitor concentration) by 4 parameter sigmoidal dose-response model using XLfit 4 software (IBDS).

ROCK2 = ROCK2 (Homo sapiens (Human), UniProt O75116); assay: ROCK2 kinase inhibition assay (LABCHIP peptide phosphorylation); assay type: biochemical; conditions: 7 μM ATP, 2.5 nM ROCK2, 3 hours at 25° C.
ROCK2, sequence (O75116 whole entry): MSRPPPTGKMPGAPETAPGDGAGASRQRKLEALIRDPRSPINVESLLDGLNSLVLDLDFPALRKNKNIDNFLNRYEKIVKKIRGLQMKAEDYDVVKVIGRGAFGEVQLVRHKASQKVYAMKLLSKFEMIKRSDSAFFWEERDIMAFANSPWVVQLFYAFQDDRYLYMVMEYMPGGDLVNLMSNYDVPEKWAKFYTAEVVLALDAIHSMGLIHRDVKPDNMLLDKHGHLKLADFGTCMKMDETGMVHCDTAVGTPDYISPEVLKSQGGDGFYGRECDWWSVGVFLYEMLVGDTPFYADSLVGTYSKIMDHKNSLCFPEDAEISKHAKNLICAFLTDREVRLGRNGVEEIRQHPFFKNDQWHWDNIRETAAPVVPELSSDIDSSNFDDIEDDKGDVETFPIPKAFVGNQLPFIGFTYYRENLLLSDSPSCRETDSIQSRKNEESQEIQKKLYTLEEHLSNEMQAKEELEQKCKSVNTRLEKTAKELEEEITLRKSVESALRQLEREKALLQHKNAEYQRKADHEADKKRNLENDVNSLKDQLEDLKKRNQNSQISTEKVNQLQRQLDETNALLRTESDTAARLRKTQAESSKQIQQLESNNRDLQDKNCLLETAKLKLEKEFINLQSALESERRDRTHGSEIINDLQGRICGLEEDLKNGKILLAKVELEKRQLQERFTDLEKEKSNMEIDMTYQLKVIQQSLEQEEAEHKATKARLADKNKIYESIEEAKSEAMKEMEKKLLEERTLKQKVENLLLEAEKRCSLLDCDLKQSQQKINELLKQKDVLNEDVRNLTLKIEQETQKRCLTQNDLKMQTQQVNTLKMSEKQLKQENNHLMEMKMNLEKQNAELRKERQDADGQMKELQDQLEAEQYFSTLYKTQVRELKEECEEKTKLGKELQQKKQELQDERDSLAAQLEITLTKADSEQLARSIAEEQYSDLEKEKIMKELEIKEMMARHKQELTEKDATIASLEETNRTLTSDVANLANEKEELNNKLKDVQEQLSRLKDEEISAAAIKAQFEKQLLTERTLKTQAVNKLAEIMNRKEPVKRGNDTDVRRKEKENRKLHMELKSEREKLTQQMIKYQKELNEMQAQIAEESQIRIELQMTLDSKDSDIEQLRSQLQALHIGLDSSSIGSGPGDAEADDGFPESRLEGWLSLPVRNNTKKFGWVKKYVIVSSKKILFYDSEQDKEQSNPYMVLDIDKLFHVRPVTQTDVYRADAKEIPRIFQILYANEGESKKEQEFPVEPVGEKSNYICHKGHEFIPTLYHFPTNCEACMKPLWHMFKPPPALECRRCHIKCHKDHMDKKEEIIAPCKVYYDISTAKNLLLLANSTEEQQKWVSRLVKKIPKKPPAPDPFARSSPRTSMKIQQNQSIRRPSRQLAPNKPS
Procedure: as §1, §2

K562 cell line = assay: Cell viability assay ([…]-GLO), K562; assay type: cell-based; conditions: Homo sapiens; K562 (does not express ITD-FLT3), 72 hours treatment
Procedure: (§3) Cell viability in the presence of varying concentrations of the above listed compounds at different time points was used to assess cytotoxicity and the effect of the compounds on cell proliferation.
(§4) Cell viability was measured by the […]-GlO® cell viability assay from Promega (Madison, Wis.). The […]-GlO® Luminescent Cell Viability Assay is a homogeneous method to determine the number of viable cells in culture based on quantitation of the ATP present, which signals the presence of metabolically active cells. Following treatment, […]-GlO® is added to treatment wells and incubated at 37° C. luminescence values were measured at using a Molecular Devices Spectramax microplate reader.
Cells were grown to 70% confluency, trypsinized, counted, and seeded in 96 well flat-bottom plates at a final concentration of 2.5×10^3-5×10^3 cells/well (Day 0). Cells were allowed to incubate in growth media for 24 hours. Treatment with the test agents or standard agents began on Day 1 and continued for 72 hours. At the 72-hour time point, treatment containing media was removed. Viable cell numbers were quantified by the […]-GLO® cell viability assay as described above. Results from these studies were used to calculate an IC50 value (concentration of drug that inhibits cell growth by 50 percent of control) for each compound.
For single agent and combination studies, data from each experiment was collected and expressed as % Cell Growth using the following calculation: % Cell Growth=(ftest/fvehicle)×100 Where ftest is the luminescence of the tested sample, and fvehicle is the luminescence of the vehicle in which the drug is dissolved. Dose response graphs and IC50 values were generated using Prism 6 software (GraphPad) using the following equation: Y=(Top−Bottom/(1+10^((logIC50−X)−HillSlope)) Where X is the logarithm of the concentration and Y is the response. Y starts at the Bottom and goes to the Top with a sigmoid shape. […]

MV411 cell line = assay: Cell viability assay ([…]-GLO), MV411; assay type: cell-based; conditions: for IC50: Homo sapiens, MV4-11, MV411 (ITD-FLT3+), 72 hours treatment; for FLT3-ITD+ Selectivity (K562/MV411): ratio of K562 to MV411 IC50
Procedure: as §3, §4
Cells were grown to 70% confluency, trypsinized, counted, and seeded in 96 well flat-bottom plates at a final concentration of 2.5×10^3-5×10^3 cells/well (Day 0). Cells were allowed to incubate in growth media for 24 hours. Treatment with the test agents or standard agents began on Day 1 and continued for 72 hours. At the 72-hour time point, treatment containing media was removed.
For single agent and combination studies, data from each experiment was collected and expressed as % Cell Growth using the following calculation: % Cell Growth=(ftest/fvehicle)×100 Where ftest is the luminescence of the tested sample, and fvehicle is the luminescence of the vehicle in which the drug is dissolved. Dose response graphs and IC50 values were generated using Prism 6 software (GraphPad) using the following equation: Y=(Top−Bottom/(1+10^((logIC50−X)−HillSlope)) Where X is the logarithm of the concentration and Y is the response. Y starts at the Bottom and goes to the Top with a sigmoid shape.
The experiments also evaluated the selectivity of the compounds for inhibiting growth of cancer cells carrying a mutation in the Flt3 gene. The MV411 cell line expresses the mutant allele of Flt3 with internal tandem duplications (ITD) of the gene. See Quentmeier et al., “FLT3 Mutations in Acute Myeloid Leukemia Cell Lines,” Leukemia 17(1), 2003, 120-124. […] See Grafone et al., “Monitoring of FLT3 Phosphorylation Status and Its Response to Drugs By Flow Cytometry in AML Blast Cells,” Hematol Oncol. 26(3), 2008, 159-166. Patients with ITD-FLT3^+ acute myeloid leukemia (AML) experience an extremely poor prognosis.

ROCK1, sequence (Q13464 whole entry): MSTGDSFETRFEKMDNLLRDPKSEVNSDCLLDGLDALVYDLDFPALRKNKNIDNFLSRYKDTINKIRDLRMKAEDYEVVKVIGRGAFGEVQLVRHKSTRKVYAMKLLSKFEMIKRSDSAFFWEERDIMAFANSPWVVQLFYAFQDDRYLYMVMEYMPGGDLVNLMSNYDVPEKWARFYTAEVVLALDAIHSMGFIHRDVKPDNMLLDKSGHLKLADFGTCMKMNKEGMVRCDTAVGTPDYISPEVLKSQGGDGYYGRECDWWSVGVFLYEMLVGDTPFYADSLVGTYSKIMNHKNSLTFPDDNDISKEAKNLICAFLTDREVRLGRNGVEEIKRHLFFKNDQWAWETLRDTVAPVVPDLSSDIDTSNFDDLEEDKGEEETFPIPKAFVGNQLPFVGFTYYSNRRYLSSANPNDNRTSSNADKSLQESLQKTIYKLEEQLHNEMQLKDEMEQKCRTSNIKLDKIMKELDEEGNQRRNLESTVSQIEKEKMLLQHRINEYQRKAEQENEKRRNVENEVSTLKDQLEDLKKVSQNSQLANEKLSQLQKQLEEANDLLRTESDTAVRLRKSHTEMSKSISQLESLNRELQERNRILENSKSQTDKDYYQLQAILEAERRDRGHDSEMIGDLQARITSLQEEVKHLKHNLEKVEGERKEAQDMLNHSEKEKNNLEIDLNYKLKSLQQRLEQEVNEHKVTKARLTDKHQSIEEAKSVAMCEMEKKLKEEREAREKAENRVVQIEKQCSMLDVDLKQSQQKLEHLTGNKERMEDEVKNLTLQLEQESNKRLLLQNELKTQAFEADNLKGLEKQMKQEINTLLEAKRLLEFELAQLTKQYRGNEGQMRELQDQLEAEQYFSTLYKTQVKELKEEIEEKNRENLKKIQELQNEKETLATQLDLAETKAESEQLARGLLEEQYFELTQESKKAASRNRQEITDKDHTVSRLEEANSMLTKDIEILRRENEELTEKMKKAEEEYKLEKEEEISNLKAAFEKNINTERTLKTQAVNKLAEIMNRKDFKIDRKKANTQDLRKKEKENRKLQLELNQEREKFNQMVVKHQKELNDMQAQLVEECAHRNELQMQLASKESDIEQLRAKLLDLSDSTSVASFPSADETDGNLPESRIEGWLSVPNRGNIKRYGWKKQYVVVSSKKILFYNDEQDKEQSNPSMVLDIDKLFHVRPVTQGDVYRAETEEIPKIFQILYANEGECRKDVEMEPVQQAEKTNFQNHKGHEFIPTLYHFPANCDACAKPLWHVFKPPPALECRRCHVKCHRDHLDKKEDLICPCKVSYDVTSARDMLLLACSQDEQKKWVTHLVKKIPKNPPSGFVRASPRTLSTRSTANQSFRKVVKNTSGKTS

Row | Compound | IC50 (ROCK1) [µM] | IC50 (ROCK2) [µM] | IC50 (K562 cell line) [µM] | IC50 (MV411 cell line) [µM] | FLT3-ITD+ Selectivity (K562/MV411) (MV411 cell line)
1 | O=C(N[C@H](CO)c1cccc(F)c1)c1cc(-c2ccncc2)[nH]n1 [Compound 1] | 0.207 | 0.098 | > 100 | 67.6 | >1
2 | O=C(NCc1cccc(O)c1)Nc1cc(-c2ccncc2)[nH]n1 [Compound 3] |  |  | > 100 | 43.7 | >2
3 | COc1cccc(CNC(=O)Nc2cc(-c3ccncc3)[nH]n2)c1 [Compound 5] | 0.073 | 0.0161 | 43.6 | 10.2 | 4
4 | COc1cccc(CN(C)C(=O)Nc2cc(-c3ccncc3)[nH]n2)c1 [Compound 7] | 0.102 | 0.0229 | 89.1 | 7.6 | 12
5 | COc1cccc(CN(CCO)C(=O)Nc2cc(-c3ccncc3)[nH]n2)c1 [Compound 9] | 0.237 | 0.0391 | 97.2 | 39.8 | 2
6 | COc1cccc(CN(CCN(C)C)C(=O)Nc2cc(-c3ccncc3)[nH]n2)c1 [Compound 11] | 0.0636 | 0.0221 | > 100 | 14.5 | >7
7 | COc1cccc(CNC(=O)Nc2cnn(-c3ccncc3)c2)c1 [Compound 25] | 0.13 | 0.0287 | 85 | 34 | 3
8 | COc1cccc(CNC(=O)c2cc3ccc(-c4cn[nH]c4)nc3s2)c1 [Compound 40] | 0.0651 | 0.0174 | > 100 | 7.1 | >14
9 | COc1cc(CNC(=O)Nc2cc(-c3ccncc3)[nH]n2)ccc1F [Compound 47] |  |  | 17.8 | 7.8 | 2
10 | COc1cccc(CNC(=O)Nc2cc(-c3ccncc3)[nH]n2)c1F [Compound 48] | 6.4 | 1.87 |  |  | 
11 | COc1cc(F)cc(CNC(=O)Nc2cc(-c3ccncc3)[nH]n2)c1 [Compound 49] |  |  | 17.8 | 7.8 | 2
12 | COc1ccc(F)c(CNC(=O)Nc2cc(-c3ccncc3)[nH]n2)c1 [Compound 50] | 1.01 | 0.239 | > 100 | 7.8 | >13
13 | COCCOc1cccc(CNC(=O)Nc2cc(-c3ccncc3)[nH]n2)c1 [Compound 51] |  |  | > 100 | 17 | >6
14 | COc1cccc([C@@H](C)NC(=O)Nc2cc(-c3ccncc3)n[nH]2)c1 [Compound 52] | 0.034 | 0.0087 | > 100 | 11.2 | >9
15 | COc1cccc([C@@H](C)NC(=O)N(C)c2cc(-c3ccncc3)n[nH]2)c1 [Compound 53] |  |  | 64.6 | 93.3 | 1
16 | COc1ccc(OC)c(CNC(=O)Nc2cc(-c3ccncc3)n[nH]2)c1 [Compound 54] |  |  | > 100 | 12.6 | >8
17 | Cc1c[nH]c2nccc(Oc3c(F)cc(Nc4cc(Cl)nc(N)n4)cc3F)c12 [Compound A, reference compound] |  |  | 0.8 | 0.7 | 
